Usually inhibition stands for the percentage by which the read-out fell short of the control. As usually defined, the viability is a read-out of living cells in per cent, often relative to untreated cells. As a reminder, the IC50 is the point on the concentration scale where inhibition reaches its midpoint.

≈ marks a conversion by molar mass, not a printed value. Entries after “also recorded” stand apart in the source; their conditions may differ. Read-outs that look alike come from different tables or passages of the source.

This is an account of results in publication PMC10706121, “Bioactive Polyketides from the Natural Complex of the Sea Urchin-Associated Fungi Penicillium sajarovii KMM 4718 and Aspergillus protuberus KMM 4747” (International Journal of Molecular Sciences, 2023).

One data set concerns Candida albicans KMM 455. Nature of the data set: Antimicrobial activity, inhibition of microbial growth (OD620). In kind it is cell-based. The conditions noted are these: for inhibition at 100 µM: Candida albicans. As for the experimental part: (§1) The yeast-like fungi of Candida albicans KMM 455 and bacterial strains Staphylococcus aureus ATCC 21027 and Escherichia coli VKPM (B-7935) (Collection of Marine Microorganisms PIBOC FEB RAS) were cultured on solid-medium Mueller Hinton broth with agar (16.0 g/L) in a Petri dish at 37 °C for 24 h.
(§2) The assays were performed in 96-well microplates in appropriate Mueller Hinton broth. Each well contained 90 µL of bacterial or of a yeast-like fungi suspension (10^9 CFU/mL). Then, 10 µL of a compound diluted at concentrations ranging from 1.5 to 100.0 µM using a 2-fold dilution was added (DMSO concentration < 1%). Culture plates were incubated overnight at 37 °C, and the OD620 was measured using a Multiskan FS spectrophotometer (Thermo Scientific Inc., Beverly, MA, USA). The antibiotic gentamicin and antifungal agent nitrofungin were used as positive controls at 1 mg/mL; 1% DMSO in PBS served as a negative control.

Data set [1] deals with Staphylococcus aureus ATCC 21027. The description is as above. The conditions noted are these: Staphylococcus aureus. In kind it is cell-based. The method, then:
as §1, §2

Data set [2] deals with Escherichia coli VKPM (B-7935). Described as above. It is filed as cell-based. The conditions noted are these: Escherichia coli, read-out: Inhibition of Microbial Growth, E. coli. The method, then: as §1, §2
Data set [3] concerns S. aureus-infected H9c2 cardiomyocytes. Nature of the data set: Staphylococcus aureus-induced infection of H9c2 cardiomyocytes (in vitro model of infectious myocarditis, MTT). In kind it is cell-based, rat. The settings on record: 1 and 10 µM. As for the experimental part:
The H9c2 cells were seeded at concentrations of 3 × 10^3 cell/well. After 24 h, the cell culture media was changed with an S. aureus bacterial suspension (10^2 CFU/mL) prepared in full DMEM culture media. The investigated compounds at concentrations of 1 and 10 µM were added after 1 h and the cells were incubated for 48 h. The S. aureus suspension with compounds at the same concentrations was used as a control. MTT reagent was added to all wells and formazan production was detected with the microplate reader MultiscanFC (ThermoLabsystems Inc., Beverly, MA, USA). The viability of S. aureus-infected cells was calculated as:Viability, relative units = (OD cells+Sa +comp − OD Sa+comp)/(OD cells+Sa − OD Sa)

For data set [4], the system named is human hepatocarcinoma HepG2 cells. Nature of the data set: Cell viability assay (MTT), cytotoxic activity. It is filed as cell-based. The conditions noted are these: 100 µM. The method, then: (§3) The HepG2 and H9c2 cells were cultured in DMEM medium (Biolot, St. Petersburg, Russia) containing 10% fetal bovine serum (Biolot, St. Petersburg, Russia) and 1% penicillin/streptomycin (Biolot, St. Petersburg, Russia) at 37 °C in a humidified atmosphere with 5% (v/v) CO2.
(§4) The HepG2 and H9c2 cells were seeded at concentrations of 5× 10^3 and 3×10^3 cell/well, respectively, and the experiments were started after 24 h. The compounds at concentrations up to 100 µM were added into the wells for 24 h, and the viability of the cells was measured by an MTT (3-(4,5-dimethylthiazol-2-yl)-2,5-diphenyltetrazolium bromide) assay, which was performed according to the manufacturer’s instructions (Sigma-Aldrich, Munich, Germany). All compounds were dissolved with DMSO so that the final concentration of DMSO in the cell culture was not more than 1%. Moreover, DMSO was used as a control. The absorbance of the resulting solution was measured at 570 nm with a microplate reader MultiscanFC (ThermoLabsystems Inc., Beverly, MA, USA). The results are presented as a percent of the control data and calculated IC50.

Data set [5] in a line: Cell viability assay (MTT), cytotoxic activity. The conditions noted are these: 24 h, MTT; for viability at 24 h, 10 µM / viability at 24 h, 100 µM: percent of control. In kind it is cell-based, human. As for the experimental part:
as §3, §4

The subject of data set [6] is normal rat cardiomyocyte H9c2 cells. As to the kind of experiment: Cell viability assay (MTT), cytotoxic activity. The settings on record: 100 µM. In kind it is cell-based. As for the experimental part: as §3, §4
Data set [7] concerns the target T1, urease from Canavalia ensiformis (Canavalia ensiformis, UniProt P07374).
T1 construct: purchased Sigma
Nature of the data set: Urease inhibition assay (indophenol method, cell-free). It is filed as biochemical. The method, then: A reaction mixture consisting of 25 µL of enzyme solution (urease from Canavalia ensiformis, Sigma, 1U final concentration) and 5 µL of test compounds dissolved in water (10–300.0 µM final concentration) was preincubated at 37 °C for 60 min in 96-well plates. Then, 55 µL of phosphate-buffered solution with […] of urea was added to each well and incubated at 37 °C for 10 min. The urease inhibitory activity was estimated by determining ammonia production using the indophenol method. Briefly, 45 µL of phenol reagent (1% w/v phenol and 0.005% w/v sodium nitroprusside) and 70 µL of alkali reagent (0.5% w/v NaOH and 0.1% active chloride NaClO) were added to each well. The absorbance was measured after 50 min at 630 nm using a MultiskanFS microplate reader (Thermo Scientific Inc., Beverly, MA, USA). All reactions were performed in triplicate in a final volume of 200 µL. The pH was maintained at 7.3–7.5 in all assays. DMSO 5% was used as a positive control.

In a further data set the test system is Candida albicans. More on the design: method as in doi:10.1007/s11274-009-0062-y. The settings on record: cited from earlier work.
The test system of a further data set is Escherichia coli. More on the design: method as in doi:10.1007/s11274-009-0062-y. The settings on record: cited from earlier work.
The subject of the next data set is Pseudomonas fluorescens. More on the design: method as in doi:10.1007/s11274-009-0062-y. The conditions noted are these: cited from earlier work.
In a further data set the test system is Bacillus subtilis. Also noted: method as in doi:10.1007/s11274-009-0062-y. The settings on record: cited from earlier work.
The mark [8] stands for this setting: human, read-out: HepG2 Cell Viability.
[9] abbreviates: rat, read-out: H9c2 Cell Viability.
[10] abbreviates: human, HepG2 hepatocarcinoma cells.

T1 sequence (P07374 whole entry, looked up): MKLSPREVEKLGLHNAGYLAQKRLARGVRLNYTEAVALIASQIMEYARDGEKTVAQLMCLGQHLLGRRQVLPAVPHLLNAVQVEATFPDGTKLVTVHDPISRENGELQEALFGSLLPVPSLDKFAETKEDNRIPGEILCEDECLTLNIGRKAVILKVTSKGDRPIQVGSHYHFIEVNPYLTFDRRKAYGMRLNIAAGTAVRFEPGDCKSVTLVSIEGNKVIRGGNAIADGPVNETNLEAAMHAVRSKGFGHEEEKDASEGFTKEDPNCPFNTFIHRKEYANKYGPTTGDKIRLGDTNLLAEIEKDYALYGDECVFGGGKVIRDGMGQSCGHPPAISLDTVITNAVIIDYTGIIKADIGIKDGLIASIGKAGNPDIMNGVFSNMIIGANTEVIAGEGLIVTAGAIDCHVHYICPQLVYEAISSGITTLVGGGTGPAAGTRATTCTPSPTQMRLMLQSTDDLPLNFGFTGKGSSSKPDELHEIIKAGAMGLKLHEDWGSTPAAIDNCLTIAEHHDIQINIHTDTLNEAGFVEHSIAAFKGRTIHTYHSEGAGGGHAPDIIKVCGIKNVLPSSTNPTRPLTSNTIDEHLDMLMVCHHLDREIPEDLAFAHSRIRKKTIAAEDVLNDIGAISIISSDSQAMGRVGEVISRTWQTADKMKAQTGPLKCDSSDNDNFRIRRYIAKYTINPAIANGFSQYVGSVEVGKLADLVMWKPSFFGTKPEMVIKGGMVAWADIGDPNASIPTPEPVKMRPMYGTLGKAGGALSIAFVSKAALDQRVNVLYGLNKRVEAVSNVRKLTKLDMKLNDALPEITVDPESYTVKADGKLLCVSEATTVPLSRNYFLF

In the case of `COc1cc(O)c2c(=O)c3c(C)cc(O)cc3oc2c1` [Compound 6, griseoxanthone C], the inhibition at 100 µM in the data set on Candida albicans KMM 455 (KMM455, read-out: Inhibition of Microbial Growth, C. albicans) is below 10%; in data set [1] (ATCC21027, read-out: Inhibition of Microbial Growth, S. aureus) it was below 10%; in data set [2], below 10%. The “Inhibition of Microbial Growth, C. albicans” value with Candida albicans KMM 455 (compounds tested at 100 µM) was “did not affect”. For the same molecule, the “effect on the viability of S. aureus-infected H9c2 cardiomyocytes” value in data set [3] was “did not show any statistical effect”. The “decrease of HepG2 cell viability” value in data set [4] turned out to be 72.9%. The viability at 24 h, 10 µM in data set [5] (setting [8]) turned out to be 85.7 ± 5.7%; in data set [5] (setting [9]), 86 ± 4.8%. The viability at 24 h, 100 µM was 27.1 ± 2.4% in data set [5] (setting [8]) and 63.3 ± 1.4% in data set [5] (setting [9]). Besides, the IC50 at 24 h in data set [5] (human, read-out: HepG2 IC50 (cytotoxic effect)) was 64.7 ± 0.8 µM; in data set [5] (rat, read-out: H9c2 IC50 (cytotoxic effect)) it was above 100 µM. Moreover, the “decrease of H9c2 cell viability” value in data set [6] came out at 36.7%. The same molecule registered an IC50 in data set [7] of 97.3 ± 1.6 µM.
As to `Cc1cc(=O)c2c(C)cc(O)cc2o1` [Compound 4, altechromone A], in the data set with Candida albicans, the “MIC against Candida albicans” value was 3.9 µg/mL (≈ 20.5 µM). Further, the inhibition at 100 µM in the data set with Candida albicans KMM 455 (KMM455, compounds tested at 100 µM, read-out: Inhibition of Microbial Growth, C. albicans) was 11.1 ± 1.3%; in data set [1] (ATCC21027, compounds tested at 100 µM, read-out: Inhibition of Microbial Growth, S. aureus), 30.1 ± 1.2%; in data set [2] (compounds tested at 100 µM), 13.6 ± 0.3%. The IC50 at 24 h in [5] (human, HepG2 cells (human hepatocarcinoma), read-out: HepG2 IC50 (cytotoxic effect)) is above 100 µM; in data set [5] (rat, H9c2 cells (normal rat cardiomyocytes), read-out: H9c2 IC50 (cytotoxic effect)), above 100 µM. Moreover, the viability at 24 h, 10 µM was 99.2 ± 6.5% in [5] (setting [10]) and 110 ± 2.9% in data set [5] (rat, H9c2 cardiomyocyte cells). The viability at 24 h, 100 µM in data set [5] (setting [10]) worked out at 92.6 ± 4.1%; in data set [5] (rat, H9c2 cardiomyocyte cells), 96.5 ± 3.6%. In the data set on Escherichia coli, the “MIC against Escherichia coli” value is 3.9 µg/mL (≈ 20.5 µM). Besides, the “MIC against Pseudomonas fluorescens” value in the data set with Pseudomonas fluorescens is 1.8 µg/mL (≈ 9.46 µM). For the same molecule, the IC50 in data set [7] is above 100 µM. Also, in data set [7] (at concentrations of up to 100 µM), the “effect on urease activity” value is recorded as “no effect; also recorded: very poor”. Also, the “MIC against Bacillus subtilis” value in the data set on Bacillus subtilis is 3.9 µg/mL (≈ 20.5 µM).
